Where two headings read alike, the source gives them in different places.
Assays:
U937 cells [1] = experiment: High-content imaging skin sensitizing prediction assay: U937 cells treated 24 h with a range of compound concentrations, CD54 intensity per cell and cell number dose response curves qualified, decision matrix applied; settings: for CD54/Cell Result: qualified dose response curve (increasing/flat/decreasing) of CD54 intensity per cell; for CD54/Cell Result / Cell Number Result: U937 cells, 24 hours compound treatment, range of concentrations; for Outcome: skin sensitivity prediction from decision matrix of FIG. 8 (CD54/cell vs cell number), Toxic* = at concentrations tested; for Cell Number Result: qualified dose response curve (increasing/flat/decreasing) of number of cells
Description: (§1) In step 160, the data corresponding to the different compound concentrations is normalized. In one embodiment, measurements generated from the vehicle-treated cell image analysis can be used. […] As such, a normalization of the data obtained from the compound-treated cells can be determined by subtracting the baseline response of the vehicle-treated cells from the measurements of the responses of the compound-treated cells. Measured values of the compound-treated cells that are below baseline levels can be notated as lacking a response, and can be ignored in further analysis, if desired.
(§2) This can be done by calculating a mean value for the measured target at each concentration level, taking into account all of the samples corresponding to the particular concentration level.
(§3) For example, mean values for gross markers can be computed for the number of cells using either the number of cell bodies or the number of nuclei detected. For specific markers, mean values can be computed for each of the features (e.g., CD54 (ICAM-1) intensity). […] Other mean values can also be used. In addition, other representative values can also be used for each concentration of the compound, such as a highest measured value, a lowest measured value, or other representative values.
(§4) This can be done by plotting on a graph the average value of the target for each concentration. […] Using the plotted points, a simple curve 170 can be generated, as shown. This simple curve represents the dose response curve.
(§5) In one embodiment, qualifying the dose response curve can be accomplished by categorizing the curve as “increasing,” “decreasing,” or “flat.”
(§6) The predefined range can be determined using a standard deviation value, a percentage of total range, or a percentage of highest value. […] In the experimental results, discussed below, the predefined range was determined using a percentage of the highest value for the curve.
(§7) In step 170, a decision matrix is applied to the qualified dose response of one or more of the measured parameters to predict skin sensitization. The qualified dose response of any of the measured cellular targets can be used. For example, the cellular targets used in the decision matrix can be selected from the gross markers, specific markers and/or the functional response of the cells. Using the selected properties, a decision matrix can be constructed based upon the expected behavior of the cell type in response to the compound used. The dose response curve behavior (e.g., “increasing,” “flat,” or “decreasing”) of the measured cellular properties can then be used to determine the prediction of sensitizing capability of the compound. In some embodiments, the decision matrix can also be used to determine if the compound is toxic.
(§8) To determine a predicted skin sensitivity of a tested compound, one simply finds the matrix location corresponding to both of the qualified dose responses determined for the tested compound, and the entry within that matrix location identifies the predicted skin sensitivity of the compound.
(§9) The compounds for which skin sensitivity is desired can then be introduced to the immune effector cells. For each concentration level of each compound, 100 μl of the 2× concentrated compound solution can be added to the corresponding wells. Similarly, 100 μl of vehicle solution can be added to the vehicle control wells and the 2× solution of the negative and positive controls can be added to the negative and positive control wells, respectively. The plate can then be incubated for 24 hours at 37° C. in 5% CO2.
(§10) After incubation, the plate can be centrifuged for 5 minutes at 125×g. The media can then be aspirated from the wells after which 50 μl of pre-warmed (e.g., to 37° C.) 4% paraformaldehyde can be added to each well.

U937 cells [2] = test system: U937 cells
Description: as §1, §2, §3, §4, §5, §6, §7, §8, §9, §10

## CC(C)O [Isopropanol]
U937 cells [1]
  CD54/Cell Result: Decrease
  Outcome: Non-sensitizer

## CCCCCCCC(=O)O [Octanoic Acid]
U937 cells [1]
  CD54/Cell Result: Increase
  Cell Number Result: Increase
  Outcome: Sensitizer

## C=CC(=O)OCCO [2hydroxyethylacrylate]
U937 cells [1]
  CD54/Cell Result: Increase
  Cell Number Result: Increase
  Outcome: Sensitizer

## Nc1ccccc1O [2-aminophenol]
U937 cells [1]
  CD54/Cell Result: Increase
  Cell Number Result: Increase
  Outcome: Sensitizer

## CC(C)=O [Acetone]
U937 cells [1]
  CD54/Cell Result: Increase
  Cell Number Result: Decrease
  Outcome: Sensitizer

## CCCCCCCC/C=C\CCCCCCCC(=O)OCCOCC(OCCO)C1OCC(OCCO)C1OCCO (centres unmarked) [Tween 80]
U937 cells [1]
  CD54/Cell Result: Decrease
  Cell Number Result: Increase
  Outcome: Non-sensitizer

## CN(C)C=O [DMF]
U937 cells [2]
  Outcome: Sensitizer
U937 cells [1]
  CD54/Cell Result: Increase
  Cell Number Result: Increase

## O=C(O)c1ccccc1O [Salicylic Acid]
U937 cells [1]
  CD54/Cell Result: Decrease
  Cell Number Result: Decrease
  Outcome: Toxic*

## O=CC=O [Glyoxal]
U937 cells [1]
  CD54/Cell Result: Increase
  Cell Number Result: Decrease
  Outcome: Sensitizer

## CC(O)CO (centres unmarked) [Propylene Glycol]
U937 cells [1]
  CD54/Cell Result: Decrease
  Cell Number Result: Flat
  Outcome: Non-sensitizer

## NCCNc1ccccc1 [Phenylethylenediamine]
U937 cells [1]
  CD54/Cell Result: Decrease
  Cell Number Result: Increase
  Outcome: Non-sensitizer

## OCC(O)CO [Glycerol]
U937 cells [1]
  CD54/Cell Result: Flat
  Outcome: Non-sensitizer

## N#CCCC(Br)(C#N)CBr (centres unmarked) [2bromo-2bromomethylglutaronitrile]
U937 cells [1]
  CD54/Cell Result: Decrease
  Outcome: Toxic*

## O=Cc1ccccc1 [Benzylaldehyde]
U937 cells [1]
  CD54/Cell Result: Increase
  Cell Number Result: Increase
  Outcome: Sensitizer

## CCO [Ethanol]
U937 cells [1]
  CD54/Cell Result: Decrease
  Cell Number Result: Increase
  Outcome: Non-sensitizer

## CC(C)=CCC/C(C)=C/CO [Geraniol]
U937 cells [1]
  CD54/Cell Result: Increase
  Cell Number Result: Increase
  Outcome: Sensitizer

## Butanol
U937 cells [1]
  CD54/Cell Result: Flat
  Cell Number Result: Increase

## CC(O)C(=O)O (centres unmarked) [Lactic Acid]
U937 cells [1]
  CD54/Cell Result: Decrease
  Cell Number Result: Decrease
  Outcome: Toxic*

## CCCCCCCCCCCCOS(=O)(=O)[O-].[Na+] [Sodium Lauryl Sulfate]
U937 cells [1]
  CD54/Cell Result: Increase
  Cell Number Result: Increase
  Outcome: Sensitizer

## CCOC(=O)c1ccccc1C(=O)OCC [Diethyl Phthalate]
U937 cells [1]
  CD54/Cell Result: Decrease
  Cell Number Result: Decrease
  Outcome: Toxic*

## CCOc1cc(C=O)ccc1O [Ethyl Vanillin]
U937 cells [2]
  Outcome: Toxic*
U937 cells [1]
  CD54/Cell Result: Decrease
  Cell Number Result: Decrease

## C[S+](C)[O-] [DMSO]
U937 cells [2]
  Outcome: Non-sensitizer
U937 cells [1]
  CD54/Cell Result: Decrease
  Cell Number Result: Increase

Reference: patent US20140194321A1 (CELLOMICS, INC., priority 2013, published 2014)
